Source: ChEMBL document CHEMBL3763009, “Discovery of antiviral molecules for dengue: In silico search and biological evaluation” (Eur J Med Chem, 2016)
The source made the active and inactive calls. The rule behind the calls is not given here.

Experiments:
[1] = (§1) Inhibition of Dengue virus 2 recombinant 6xHis-tagged NS2B/NS3 serine protease using Boc-Gly-Arg-Arg-AMC as substrate measured for 60 mins by fluorimetric analysis; set-up: species or system dengue virus type 2
dengue virus type 2 [2] = experiment: as §1
dengue virus type 2 [3] = experiment: Antiviral activity against Dengue virus 2 infected in human HepG2 cells assessed as reduction in NS1 level at 19.5 uM after 72 hrs by sandwich ELISA relative to control; format: functional; set-up: scale not given: the % may be the effect or the level left
dengue virus type 2 [4] = experiment: Antiviral activity against Dengue virus 2 infected in human HepG2 cells assessed as reduction in NS1 level at 9.8 uM administered 1 hr postinfection measured after 72 hrs by sandwich ELISA relative to control; format: functional; set-up: scale not given: the % may be the effect or the level left
[5] = Cytotoxicity against human HepG2 cells assessed as cell viability after 72 hrs by MTT assay; format: cell-based
[6] = Selectivity index, ratio of CC50 for human HepG2 cells to IC50 for Dengue virus 2 infected in human HepG2 cells; format: functional
dengue virus type 2 [7] = experiment: Antiviral activity against Dengue virus 2 infected in human HepG2 cells assessed as reduction in NS1 level after 72 hrs by sandwich ELISA; format: functional, organism-based; conditions: HepG2, 72 h
dengue virus type 2 [8] = experiment: Antiviral activity against Dengue virus 2 infected in human HepG2 cells assessed as reduction in NS1 level at 12.5 uM administered 1 hr postinfection measured after 72 hrs by sandwich ELISA relative to control; format: functional, organism-based
HepG2 [9] = experiment: Cytotoxicity against human HepG2 cells assessed as reduction in cell viability up to 12.5 uM after 72 hrs by MTT assay; format: cell-based; conditions: hepg2, 72 h
dengue virus type 2 [10] = experiment: Antiviral activity against Dengue virus 2 infected in human HepG2 cells assessed as NS1 level at < maximum non-toxic concentration after 72 hrs by sandwich ELISA (reference value: 44.5 +/- 3.2 PbU); format: functional
dengue virus type 2 [11] = experiment: Antiviral activity against Dengue virus 2 infected in human HepG2 cells assessed as reduction in NS1 level at 85.7 uM administered 1 hr postinfection measured after 72 hrs by sandwich ELISA relative to control; format: functional; set-up: scale not given: the % may be the effect or the level left
dengue virus type 2 [12] = experiment: Antiviral activity against Dengue virus 2 infected in human HepG2 cells assessed as reduction in NS1 level at 49.2 uM administered 1 hr postinfection measured after 72 hrs by sandwich ELISA relative to control; format: functional; set-up: scale not given: the % may be the effect or the level left
dengue virus type 2 [13] = experiment: Antiviral activity against Dengue virus 2 infected in human HepG2 cells assessed as reduction in NS1 level at 13.5 uM administered 1 hr postinfection measured after 72 hrs by sandwich ELISA relative to control; format: functional; set-up: scale not given: the % may be the effect or the level left
dengue virus type 2 [14] = experiment: Antiviral activity against Dengue virus 2 infected in human HepG2 cells assessed as reduction in NS1 level at 100 uM administered 1 hr postinfection measured after 72 hrs by sandwich ELISA relative to control; format: functional, organism-based
HepG2 [15] = experiment: Cytotoxicity against human HepG2 cells assessed as reduction in cell viability up to 100 uM after 72 hrs by MTT assay; format: cell-based; conditions: hepg2, 72 h

Row | SMILES | IC50 [1] | inhibition (dengue virus type 2 [2]) | CC50 at 72 h [5] | Ratio CC50/IC50 [6] | IC50 (dengue virus type 2 [7]) | also measured
1 | CC1(C)CC(=O)C2=C(C1)c1c(ccc3ccccc13)NC2c1ccc(-c2ccc(O)c(C(=O)O)c2)o1 (centres undefined) | 17.5 µM | Dose-dependent effect | 58.6 µM | 3.9 | 14.9 µM | Activity (dengue virus type 2 [3]): 69.8%; Activity (dengue virus type 2 [4]): 15.5%
2 | O=c1oc2ccccc2c(O)c1C1c2ccccc2Oc2c1c(=O)oc1ccccc21 (centres undefined) | 18.9 µM | Dose-dependent effect | – | – | – | Activity (dengue virus type 2 [8]): inactive; Activity (HepG2 [9]): Non-toxic
3 | NC(=O)c1ncn([C@@H]2O[C@H](CO)[C@@H](O)[C@H]2O)n1 [RIBAVIRIN] | – | – | – | – | – | Activity (dengue virus type 2 [10]): 8.3 PbU
4 | COc1ccc(C(c2c(O)c3ccccc3oc2=O)c2c(O)c3ccccc3oc2=O)cc1COc1ccc(NC(C)=O)cc1 | 19.9 µM | Dose-dependent effect | 162 µM | 2.6 | 61.5 µM | Activity (dengue virus type 2 [11]): 79.9%; Activity (dengue virus type 2 [12]): 37%
5 | COc1ccc(C(c2c(O)c3ccccc3oc2=O)c2c(O)c3ccccc3oc2=O)cc1CSc1nc2ccccc2s1 | 9.09 µM | Dose-dependent effect | 42.1 µM | 3.6 | 11.8 µM | Activity (dengue virus type 2 [13]): 73.9%
6 | Cc1ccc2nc(-c3ccc(NC(=O)c4c(O)c5c(n(Cc6ccco6)c4=O)CCCC5)cc3)sc2c1 | 608 µM | Dose-dependent effect | – | – | – | Activity (dengue virus type 2 [14]): inactive; Activity (HepG2 [15]): Non-toxic
